Source: patent US20250179073A1, “TRICYCLIC HETEROCYCLE COMPOUNDS AS IAP ANTAGONISTS” (Ascentage Pharma (Suzhou) Co., Ltd., priority 2022, published 2025)

Key:
MDA-MB-231 cells = experiment: Cell proliferation assay (CellTiter-Glo), MDA-MB-231; type: cell-based; settings: Homo sapiens, MDA-MB-231, 72 h, 72 h treatment, Celltiter-Glo luminescence
In short: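 Compounds tested over ten concentrations ([…]) for 72 h on EVSA-T cells in MEM/10% FBS and MDA-MB-231 cells in RPMI-1640/10% FBS, seeded at 10000/well. Luminescent CellTiter-Glo readout; IC50 fitted after normalisation to controls.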

EVSA-T cells = experiment: Cell proliferation assay (CellTiter-Glo), EVSA-T; type: cell-based; settings: Homo sapiens, EVSA-T, 72 h, 72 h treatment, Celltiter-Glo luminescence
Procedure: Example 238: Cell Proliferation Assay
MDA-MB-231 and EVSA-T cells (10000 cells/well) were plated onto 96-well plates (Corning, Cat #3917) in 95 μL of medium (RPMI-1640 containing 10% FBS and MEM containing 10% FBS, respectively). Compounds with various concentrations ([…]) were added to the wells. After treatment for 72 h, 30 μL of Celltiter-Glo reagent (Promega, Cat #G7573) was added and incubated at room temperature for 15 min, then the luminescent signal was determined using a microplate reader (Biotek, SynergyH1). The inhibitor dose-response curves were analyzed using normalized IC50 regression curve fitting with control based normalization.

SMILES	IC50 (MDA-MB-231 cells)	IC50 (EVSA-T cells)
C[C@@H]1CN(CC(=O)N2CC(C)(C)c3c2cc(Cc2ccc(F)cc2)c2nc(C4CCOCC4)nn32)[C@@H](CN2CCOC[C@H]2C)CN1 [Compound 140, 1-(4-(4-fluorobenzyl)-8,8-dimethyl-2-(tetrahydro-2H-pyran-4-yl)-7,8-dihydro-6H-pyrrolo[2,3-e][1,2,4]triazolo[1,5-a]pyridin-6-yl)-2-((2R,5R)-5-methyl-2-(((R)-3-methylmorpholino)methyl)piperazin-1-yl)ethan-1-one]	45 nM	3 nM
C[C@@H]1CN(CC(=O)N2CC(C)(C)c3c2cc(Cc2ccc(F)cc2)c2nn(Cc4cncnc4)c(=O)n32)[C@@H](CN2CCOC[C@H]2C)CN1 [Compound 236, 4-(4-fluorobenzyl)-8,8-dimethyl-6-(2-((2R,5R)-5-methyl-2-(((R)-3-methylmorpholino)methyl)piperazin-1-yl)acetyl)-2-(pyrimidin-5-ylmethyl)-2,6,7,8-tetrahydro-1H-pyrrolo[2,3-e][1,2,4]triazolo[4,3-a]pyridin-1-one]	87 nM	0.7 nM
C[C@@H]1CN(CC(=O)N2CC(C)(C)c3c2cc(C(F)c2ccc(F)cc2)c2ncnn32)[C@@H](CN2CCOC[C@H]2C)CN1 (stereo partly drawn) [Compound 138, 1-(4-(fluoro(4-fluorophenyl)methyl)-8,8-dimethyl-7,8-dihydro-6H-pyrrolo[2,3-e][1,2,4]triazolo[1,5-a]pyridin-6-yl)-2-((2R,5R)-5-methyl-2-(((R)-3-methylmorpholino)methyl)piperazin-1-yl)ethan-1-one]	160 nM	33 nM
C[C@@H]1CN(CC(=O)N2CC(C)(C)c3c2cc(Cc2cccc(F)c2)c2ncnn32)[C@@H](CN2CCOC[C@H]2C)CN1 [Compound 39, 1-(4-(3-fluorobenzyl)-8,8-dimethyl-7,8-dihydro-6H-pyrrolo[2,3-e][1,2,4]triazolo[1,5-a]pyridin-6-yl)-2-((2R,5R)-5-methyl-2-(((R)-3-methylmorpholino)methyl)piperazin-1-yl)ethan-1-one]	150 nM	34 nM
C[C@@H]1CN(CC(=O)N2CC(C)(C)c3c2cc(Cc2ccc(F)cc2)c2nc(N4CCN(C)C4=O)nn32)[C@@H](CN2CCOC[C@H]2C)CN1 [Compound 235, 1-(4-(4-fluorobenzyl)-8,8-dimethyl-6-(2-((2R,5R)-5-methyl-2-(((R)-3-methylmorpholino)methyl)piperazin-1-yl)acetyl)-7,8-dihydro-6H-pyrrolo[2,3-e][1,2,4]triazolo[1,5-a]pyridin-2-yl)-3-methylimidazolidin-2-one]	38 nM	1.3 nM
C[C@@H]1CN(CC(=O)N2CC(C)(C)c3c2cc(Cc2ccc(F)cc2)c2nc(Cl)cn32)[C@@H](CN2CCOC[C@H]2C)CN1 [Compound 113, 1-(2-chloro-4-(4-fluorobenzyl)-8,8-dimethyl-7,8-dihydro-6H-imidazo[1,2-a]pyrrolo[2,3-e]pyridin-6-yl)-2-((2R,5R)-5-methyl-2-(((R)-3-methylmorpholino)methyl)piperazin-1-yl)ethan-1-one]	74 nM	6 nM
C[C@@H]1CN(CC(=O)N2CC(C)(C)c3c2cc(Cc2ccc(F)cc2)c2nccn32)[C@@H](CN2CCOC[C@H]2C)CN1 [Example 17, 1-(4-(4-fluorobenzyl)-8,8-dimethyl-7,8-dihydro-6H-imidazo[1,2-a]pyrrolo[2,3-e]pyridin-6-yl)-2-((2R,5R)-5-methyl-2-(((R)-3-methylmorpholino)methyl)piperazin-1-yl)ethan-1-one]	120 nM	4 nM
C[C@@H]1CN(CC(=O)N2CC(C)(C)c3c2cc(Cc2ccc(F)cc2)c2nn(C4COC4)c(=O)n32)[C@@H](CN2CCOC[C@H]2C)CN1 [Compound 210, 4-(4-fluorobenzyl)-8,8-dimethyl-6-(2-((2R,5R)-5-methyl-2-(((R)-3-methylmorpholino)methyl)piperazin-1-yl)acetyl)-2-(oxetan-3-yl)-2,6,7,8-tetrahydro-1H-pyrrolo[2,3-e][1,2,4]triazolo[4,3-a]pyridin-1-one]	33 nM	3 nM
C[C@@H]1CN(CC(=O)N2CC(C)(C)c3c2cc(Cc2ccc(F)cc2)c2ncc(Cl)n32)[C@@H](CN2CCOC[C@H]2C)CN1 [Compound 118, 1-(1-chloro-4-(4-fluorobenzyl)-8,8-dimethyl-7,8-dihydro-6H-imidazo[1,2-a]pyrrolo[2,3-e]pyridin-6-yl)-2-((2R,5R)-5-methyl-2-(((R)-3-methylmorpholino)methyl)piperazin-1-yl)ethan-1-one]	120 nM	10 nM
C[C@@H]1CN(CC(=O)N2CC(C)(C)c3c2cc(Cc2ccc(F)cc2)c2nc(C(F)(F)F)cn32)[C@@H](CN2[C@H](C)COC[C@H]2C)CN1 [Compound 161, 2-((2R,5R)-2-(((3R,5R)-3,5-dimethylmorpholino)methyl)-5-methylpiperazin-1-yl)-1-(4-(4-fluorobenzyl)-8,8-dimethyl-2-(trifluoromethyl)-7,8-dihydro-6H-imidazo[1,2-a]pyrrolo[2,3-e]pyridin-6-yl)ethan-1-one]	120 nM	30 nM
C[C@@H]1CN(CC(=O)N2CC(C)(C)c3c2cc(Cc2ccc(F)cc2)c2nn(CCN(C)C)c(=O)n32)[C@@H](CN2CCOC[C@H]2C)CN1 [Compound 243, 2-(2-(dimethylamino)ethyl)-4-(4-fluorobenzyl)-8,8-dimethyl-6-(2-((2R,5R)-5-methyl-2-(((R)-3-methylmorpholino)methyl)piperazin-1-yl)acetyl)-2,6,7,8-tetrahydro-1H-pyrrolo[2,3-e][1,2,4]triazolo[4,3-a]pyridin-1-one]	95 nM	14.5 nM
C[C@@H]1CN(CC(=O)N2CC(C)(C)c3c2cc(Cc2ccc(F)cc2)c2nn(C[C@H]4COCCO4)c(=O)n32)[C@@H](CN2CCOC[C@H]2C)CN1 [Compound 237, 2-(((S)-1,4-dioxan-2-yl)methyl)-4-(4-fluorobenzyl)-8,8-dim ethyl-6-(2-((2R,5R)-5-methyl-2-(((R)-3-methylmorpholino)methyl)piperazin-1-yl)acetyl)-2,6,7,8-tetrahydro-1H-pyrrolo[2,3-e][1,2,4]triazolo[4,3-a]pyridin-1-one]	46 nM	1.5 nM
C[C@@H]1CN(CC(=O)N2CC(C)(C)c3c2cc(Cc2ccc(F)cc2)c2ncnn32)[C@@H](CN2CC3CCC2CO3)CN1 (stereo partly drawn) [Compound 214, 2-((2R,5R)-2-((2-oxa-5-azabicyclo[2.2.2]octan-5-yl)methyl)-5-methylpiperazin-1-yl)-1-(4-(4-fluorobenzyl)-8,8-dimethyl-7,8-dihydro-6H-pyrrolo[2,3-e][1,2,4]triazolo[1,5-a]pyridin-6-yl)ethan-1-one]	49 nM	8 nM
C[C@@H]1CN(CC(=O)N2CC(C)(C)c3c2cc(Cc2ccc(F)cc2)c2nncn32)[C@@H](CN2CCOC[C@H]2C)CN1 [Example 9, 1-(4-(4-fluorobenzyl)-8,8-dimethyl-7,8-dihydro-6H-pyrrolo[2,3-e][1,2,4]triazolo[4,3-a]pyridin-6-yl)-2-((2R,5R)-5-methyl-2-(((R)-3-methylmorpholino)methyl)piperazin-1-yl)ethan-1-one]	530 nM	18 nM
C[C@@H]1CN(CC(=O)N2CC(C)(C)c3c2cc(Cc2ccc(F)cc2)c2nn(CCO)c(=O)n32)[C@@H](CN2CCOC[C@H]2C)CN1 [Compound 201, 4-(4-fluorobenzyl)-2-(2-hydroxyethyl)-8,8-dimethyl-6-(2-((2R,5R)-5-methyl-2-(((R)-3-methylmorpholino)methyl)piperazin-1-yl)acetyl)-2,6,7,8-tetrahydro-1H-pyrrolo[2,3-e][1,2,4]triazolo[4,3-a]pyridin-1-one]	26 nM	11 nM
C[C@@H]1CN(CC(=O)N2CC(C)(C)c3c2cc(Sc2ccc(F)cc2)c2ncnn32)[C@@H](CN2CCOC[C@H]2C)CN1 [Compound 49, 1-(4-((4-fluorophenyl)thio)-8,8-dimethyl-7,8-dihydro-6H-pyrrolo[2,3-e][1,2,4]triazolo[1,5-a]pyridin-6-yl)-2-((2R,5R)-5-methyl-2-(((R)-3-methylmorpholino)methyl)piperazin-1-yl)ethan-1-one]	30 nM	5 nM
C[C@@H]1CN(CC(=O)N2CC(C)(C)c3c2cc(Cc2ccc(F)cc2)c2ncnn32)[C@@H](CN2Cc3cccc(F)c3C2=O)CN1 [Compound 207, 7-fluoro-2-(((2R,5R)-1-(2-(4-(4-fluorobenzyl)-8,8-dimethyl-7,8-dihydro-6H-pyrrolo[2,3-e][1,2,4]triazolo[1,5-a]pyridin-6-yl)-2-oxoethyl)-5-methylpiperazin-2-yl)methyl)isoindolin-1-one]	20 nM	2 nM
C[C@@H]1CN(CC(=O)N2CC(C)(C)c3c2cc(C(F)(F)CC2CC2)c2ncnn32)[C@@H](CN2CCOC[C@H]2C)CN1 [Compound 53, 1-(4-(2-cyclopropyl-1,1-difluoroethyl)-8,8-dimethyl-7,8-dihydro-6H-pyrrolo[2,3-e][1,2,4]triazolo[1,5-a]pyridin-6-yl)-2-((2R,5R)-5-methyl-2-(((R)-3-methylmorpholino)methyl)piperazin-1-yl)ethan-1-one]	130 nM	60 nM
